Reference: PMC12219900, “Mechanistic insights into Bcs1-mediated mitochondrial membrane translocation of the folded Rieske protein” (The EMBO Journal, 2025)

T1: Bcs1-ATPγS2-Rip1-FeS (Saccharomyces cerevisiae, UniProt P32839)
T1 construct: Bcs1 heptamer (His6-FLAG-3C, from yeast) preloaded with E. coli-expressed Rip1-FeS (aa 83-215; TwinStrep tag, 3C-treated; plasmid named Rip1 delta81); with Cytochrome b-c1 complex subunit Rieske, mitochondrial
T1 sequence (P32839 1-456): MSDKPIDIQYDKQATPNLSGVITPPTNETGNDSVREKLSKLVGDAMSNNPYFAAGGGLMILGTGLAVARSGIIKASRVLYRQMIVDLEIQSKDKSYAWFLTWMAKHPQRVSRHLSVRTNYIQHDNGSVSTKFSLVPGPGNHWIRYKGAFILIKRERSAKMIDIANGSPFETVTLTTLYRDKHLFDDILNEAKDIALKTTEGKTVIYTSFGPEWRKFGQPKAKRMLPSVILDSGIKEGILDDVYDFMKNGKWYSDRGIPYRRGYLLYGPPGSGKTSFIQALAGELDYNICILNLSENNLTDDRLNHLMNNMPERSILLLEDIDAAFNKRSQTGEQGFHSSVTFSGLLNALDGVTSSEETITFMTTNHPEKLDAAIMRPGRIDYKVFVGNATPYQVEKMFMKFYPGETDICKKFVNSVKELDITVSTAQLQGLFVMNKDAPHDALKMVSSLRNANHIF
T1 sequence (P08067 83-215 partner): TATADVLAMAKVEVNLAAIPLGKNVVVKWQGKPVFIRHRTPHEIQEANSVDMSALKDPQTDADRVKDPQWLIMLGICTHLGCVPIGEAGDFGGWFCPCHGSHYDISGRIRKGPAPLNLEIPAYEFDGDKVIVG

T2: yBcs1 (Bcs1 heptamer) (Saccharomyces cerevisiae, UniProt P32839)
T2 construct: full length 1-456, N-terminal 6xHis-FLAG-3C tag (cleavage not described), expressed in S. cerevisiae W303 bcs1delta, digitonin-solubilised, SEC in GDN, homoheptamer about 700 kDa on BN-PAGE
T2 sequence (P32839 1-456): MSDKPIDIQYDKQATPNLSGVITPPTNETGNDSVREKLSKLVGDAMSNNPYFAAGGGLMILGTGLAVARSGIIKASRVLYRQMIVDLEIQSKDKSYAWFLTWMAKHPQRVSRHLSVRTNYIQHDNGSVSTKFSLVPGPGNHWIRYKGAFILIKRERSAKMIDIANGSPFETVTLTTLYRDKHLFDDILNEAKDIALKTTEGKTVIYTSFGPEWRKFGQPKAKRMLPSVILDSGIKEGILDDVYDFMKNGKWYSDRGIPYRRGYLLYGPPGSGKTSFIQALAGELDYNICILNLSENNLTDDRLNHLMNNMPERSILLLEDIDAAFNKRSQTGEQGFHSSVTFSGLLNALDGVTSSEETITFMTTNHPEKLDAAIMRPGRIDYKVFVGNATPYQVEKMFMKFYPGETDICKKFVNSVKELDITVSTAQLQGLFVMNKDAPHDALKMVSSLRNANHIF


Assays:
Bcs1-ATPγS2-Rip1-FeS = biological target: T1, Bcs1-ATPγS2-Rip1-FeS; assay: cryo-EM structure; format: binding; details: Rip1-FeS added before 2 mM ATPγS, 2.5 mM MgCl2, pH 7.5, 25 °C; map only (EMD-51562)
yBcs1 (Bcs1 heptamer) = biological target: T2, yBcs1 (Bcs1 heptamer); assay: cryo-EM structure; BN-PAGE shift; format: binding; details: 2 mM ATPγS, 2.5 mM MgCl2, pH 7.5, 25 °C; all seven AAA sites; two states ATPγS1 (9GSN) and ATPγS2 (9GU9)
[1] = biological target: the molecule itself; assay: cryo-EM structure; Bcs1 first incubated with Rip1-FeS in BN-buffer with 2.5 mM MgCl2 for 10 min at 25 °C, then 2 mM ATPγS for 10 min; ATPγS2 state

Molecule	cryo-EM structure (Bcs1-ATPγS2-Rip1-FeS)	cryo-EM structure; BN-PAGE shift (yBcs1 (Bcs1 heptamer))	stoichiometry N [1]
Nc1ncnc2c1ncn2[C@@H]1O[C@H](COP(=O)(O)OP(=O)(O)OP(O)(O)=S)[C@@H](O)[C@H]1O [ATPγS]	with all seven ATP-binding pockets exhibiting ATPγS density	ATPγS density was observed in each of the seven protomers as well	
Bcs1 (yeast Bcs1 heptamer) (enzyme, S. cerevisiae, UniProt P32839 1-456, looked up, Bcs1, S. cerevisiae, YDR375C, residues 1-456 (coding region of the gene); N-terminal 6xHis-FLAG-3C tag; no cleavage with 3C protease is described for Bcs1; AAA ATPase that forms heptameric rings; also called yBcs1; bc1 synthesis 1) MSDKPIDIQYDKQATPNLSGVITPPTNETGNDSVREKLSKLVGDAMSNNPYFAAGGGLMILGTGLAVARSGIIKASRVLYRQMIVDLEIQSKDKSYAWFLTWMAKHPQRVSRHLSVRTNYIQHDNGSVSTKFSLVPGPGNHWIRYKGAFILIKRERSAKMIDIANGSPFETVTLTTLYRDKHLFDDILNEAKDIALKTTEGKTVIYTSFGPEWRKFGQPKAKRMLPSVILDSGIKEGILDDVYDFMKNGKWYSDRGIPYRRGYLLYGPPGSGKTSFIQALAGELDYNICILNLSENNLTDDRLNHLMNNMPERSILLLEDIDAAFNKRSQTGEQGFHSSVTFSGLLNALDGVTSSEETITFMTTNHPEKLDAAIMRPGRIDYKVFVGNATPYQVEKMFMKFYPGETDICKKFVNSVKELDITVSTAQLQGLFVMNKDAPHDALKMVSSLRNANHIF			7
